Experimental data: patent publication US9758485B2, “Compounds for controlling arthropods” (priority 2013, dated 2017)

Legend:
[1] = logP determination by HPLC on a reversed-phase column (C18), EEC Directive 79/831 Annex V.A8; format: physicochemical; conditions: for logP^a): HPLC-MS method a), Table I-T3; for log P: HPLC-MS, reversed-phase column (C18)
Musca domestica = Musca domestica test; format: in vivo; conditions: application rate 100 ppm; adult houseflies; kill after 2 days
Experimental: (§1) Solvent: dimethyl sulphoxide
(§2) To produce an appropriate active ingredient formulation, 10 mg of active ingredient are mixed with 0.5 ml of dimethyl sulphoxide, and the concentrate is diluted with water to the desired concentration.
Vessels containing a sponge treated with sugar solution and the active ingredient formulation of the desired concentration are populated with 10 adult houseflies (Musca domestica).
After 2 days, the kill in % is determined. 100% means that all of the flies have been killed; 0% means that none of the flies have been killed.

Lucilia cuprina = Lucilia cuprina test; format: in vivo; conditions: application rate 100 ppm; L1 larvae in minced horsemeat; kill after 2 days
Experimental: as §1, §2
About 20 L1 larvae of the Australian sheep blowfly (Lucilia cuprina) are transferred into a test vessel containing minced horsemeat and the active ingredient preparation of the desired concentration.
After 2 days, the kill in % is determined. 100% means that all the larvae have been killed; 0% means that none of the larvae have been killed.

Ctenocephalides felis [2] = assay: Ctenocephalides felis - oral test; format: in vivo; conditions: application rate 100 ppm in citrated cattle blood; adult fleas; kill after 2 days
Experimental: Ctenocephalides felis—Oral Test
as §1
For the purpose of producing an appropriate active ingredient formulation, 10 mg of active ingredient are mixed with 0.5 ml of dimethyl sulphoxide. Dilution with citrated cattle blood gives the desired concentration.
About 20 unfed adult cat fleas (Ctenocephalides felis) are placed into a chamber which is closed at the top and bottom with gauze. A metal cylinder whose bottom end is closed with parafilm is placed onto the chamber. The cylinder contains the blood/active ingredient preparation, which can be imbibed by the fleas through the parafilm membrane.
After 2 days, the kill in % is determined. 100% means that all of the fleas have been killed; 0% means that none of the fleas have been killed.

Boophilus microplus = Boophilus microplus - injection test; format: in vivo; conditions: application rate 20 μg/animal; injected into engorged adult female ticks; laying of fertile eggs, after 7 days
Experimental: Boophilus microplus—Injection Test
as §1
To produce an appropriate active ingredient formulation, 10 mg of active ingredient are mixed with 0.5 ml of solvent and the concentrate is diluted with solvent to the desired concentration.
1 μl of the active ingredient solution is injected into the abdomen of 5 engorged adult female cattle ticks (Boophilus microplus). The animals are transferred into dishes and kept in a climate-controlled room.
Efficacy is assessed after 7 days by laying of fertile eggs. Eggs which are not visibly fertile are stored in a climate-controlled cabinet until the larvae hatch after about 42 days. An efficacy of 100% means that none of the ticks has laid any fertile eggs; 0% means that all the eggs are fertile.

Ctenocephalides felis [3] = assay: Ctenocephalides felis - in vitro contact tests with adult cat fleas; format: in vivo; conditions: application rate 5 μg/cm^2 (=500 g/ha), after 48 h (dead or moribund)
Experimental: Ctenocephalides felis—In Vitro Contact Tests with Adult Cat Fleas
For the coating of the test tubes, 9 mg of active ingredient are first dissolved in 1 ml of acetone p.a. and then diluted to the desired concentration with acetone p.a. 250 μl of the solution are distributed homogeneously on the inner walls and base of a 25 ml test tube by turning and rocking on an orbital shaker (rocking rotation at 30 rpm for 2 h). With 900 ppm active ingredient solution and internal surface area 44.7 cm^2, given homogeneous distribution, an area-based dose of 5 μg/cm^2 is achieved.
After the solvent has evaporated off, the tubes are populated with 5-10 adult cat fleas (Ctenocephalides felis), sealed with a perforated plastic lid and incubated in a horizontal position at room temperature and ambient humidity. After 48 h, efficacy is determined. To this end, the test tubes are stood upright and the fleas are knocked to the base of the tube. Fleas which remain motionless at the base or move in an uncoordinated manner are considered to be dead or moribund.
100% efficacy means that all the fleas were dead or moribund. 0% efficacy means that no fleas were harmed.

| Compound | logP^a) [1] | efficacy (Musca domestica) | efficacy (Lucilia cuprina) | efficacy (Ctenocephalides felis [2]) | efficacy (Boophilus microplus) | efficacy (Ctenocephalides felis [3]) | log P [1] | logP ([1]; HPLC, reversed-phase C18, acetonitrile/water with formic acid, 55° C.) |
| --- | --- | --- | --- | --- | --- | --- | --- | --- |
| Cc1cc(C(F)(C(F)(F)F)C(F)(F)F)cc(C)c1-n1cc(-c2cncc(C(=O)NC3CC3)c2)cn1 [I-T3-7] | 3.4 | 80% | 100% | 100% | 100% | 100% |  |  |
| Cc1cc(C(F)(C(F)(F)F)C(F)(F)F)cc(C)c1-n1cc(-c2cccc(C(=O)NC3CC3)c2F)cn1 [I-T3-9] | 4.3 |  | 100% | 100% | 100% | 100% |  |  |
| Cc1cc(C(F)(C(F)(F)F)C(F)(F)F)cc(C)c1-n1cc(-c2cc(C(=O)NC3(C#N)CC3)c(Cl)cc2F)cn1 [I-T3-17] | 4.4 |  | 100% | 95% | 100% | 100% |  |  |
| Cc1cc(C(F)(C(F)(F)F)C(F)(F)F)cc(C)c1-n1cc(-c2cccc(C(=O)NC3CC3)c2)cn1 [I-T3-29] | 3.3 | 100% | 100% | 100% | 100% | 100% |  |  |
| Cc1cc(C(F)(C(F)(F)F)C(F)(F)F)cc(C)c1-n1cc(-c2cccc(C(=O)NC3(C#N)CC3)c2)cn1 [I-T3-30] | 3.2 | 90% | 100% | 100% | 100% | 100% |  |  |
| O=C(NC1CC1)c1cc(-c2cnn(-c3ccc(C(F)(C(F)(F)F)C(F)(F)F)cc3Cl)c2)ccc1Cl [I-T3-31] | 4.3 | 100% | 100% | 100% | 100% | 100% |  |  |
| O=C(NCC(F)(F)F)c1cc(-c2cnn(-c3c(Cl)cc(C(F)(C(F)(F)F)C(F)(F)F)cc3C(F)(F)F)c2)ccc1Cl [I-T3-58] | 4.7 | 100% | 100% | 100% | 100% |  |  |  |
| N#CC1(NC(=O)c2cc(-c3cnn(-c4c(F)cc(C(F)(C(F)(F)F)C(F)(F)F)cc4F)c3)ccc2Cl)CC1 [I-T3-62] | 3.9 | 100% | 100% | 100% | 100% |  |  |  |
| Cc1cc(C(F)(C(F)(F)F)C(F)(F)F)cc(C)c1-n1cc(-c2ccc(Cl)c(C(=O)NC3(C#N)CC3)c2F)cn1 [I-T3-65] | 4.3 | 100% | 100% | 100% | 100% |  |  |  |
| CCc1cc(C(F)(C(F)(F)F)C(F)(F)F)cc(C)c1-n1cc(-c2ccc(Cl)c(C(=O)NC3(C#N)CC3)c2F)cn1 [I-T3-66] | 4.6 | 80% | 100% | 100% | 100% |  |  |  |
| CCc1cc(C(F)(C(F)(F)F)C(F)(F)F)cc(C)c1-n1cc(-c2ccc(Cl)c(C(=O)NC3CC3)c2F)cn1 [I-T3-68] | 4.8 | 80% | 100% | 100% | 100% |  |  |  |
| O=C(NC1CC1)c1c(Cl)ccc(-c2cnn(-c3c(Cl)cc(C(F)(C(F)(F)F)C(F)(F)F)cc3Cl)c2)c1F [I-T3-73] | 4.5 | 100% | 100% | 100% | 100% |  |  |  |
| CCc1cc(C(F)(C(F)(F)F)C(F)(F)F)cc(C)c1-n1cc(-c2cncc(C(=O)NC3(C#N)CC3)c2)cn1 [I-T3-76] | 3.4 | 90% | 90% | 100% | 100% |  |  |  |
| CCc1cc(C(F)(C(F)(F)F)C(F)(F)F)cc(C)c1-n1cc(-c2cncc(C(=O)NC3CC3)c2)cn1 [I-T3-77] | 3.4 | 100% | 100% | 100% | 100% |  |  |  |
| CCc1cc(C(F)(C(F)(F)F)C(F)(F)F)ccc1-n1cc(-c2cncc(C(=O)NC3CC3)c2)cn1 [I-T3-79] | 3.3 | 80% | 80% | 95% | 100% |  |  |  |
| N#CC1(NC(=O)c2cc(-c3cnn(-c4ccc(OC(F)(F)F)cc4Cl)c3)ccc2Cl)CC1 [I-T3-89] | 3.5 | 100% | 100% | 100% | 100% |  |  |  |
| Cc1ncc(-c2cnn(-c3c(Cl)cc(C(F)(F)F)cc3Cl)c2)cc1C(=O)NC1CC1 [I-T3-127] |  |  | 90% | 100% | 100% | 100% | 2.5 |  |
| Cc1ncc(-c2cnn(-c3c(Cl)cc(C(F)(F)F)cc3Cl)c2)cc1C(=O)N(C)C1CC1 [I-T3-128] |  |  |  | 100% | 100% | 100% | 2.8 |  |
| Cc1ncc(-c2cnn(-c3c(Cl)cc(C(F)(F)F)cc3Cl)c2)cc1C(=O)NC1(C#N)CC1 [I-T3-129] |  | 80% |  | 100% | 100% | 100% | 2.6 |  |
| Cc1ncc(-c2cnn(-c3c(Cl)cc(C(F)(F)F)cc3Cl)c2)cc1C(=O)N(C)C1(C#N)CC1 [I-T3-132] |  |  |  | 100% | 100% | 100% | 2.9 |  |
| COCCNc1ncc(-c2cnn(-c3c(Cl)cc(C(F)(C(F)(F)F)C(F)(F)F)cc3Cl)c2)cc1C(=O)NC1CC1 [I-T3-138] |  |  |  |  |  | 100% | 4.1 |  |
| Cc1cc(C(F)(C(F)(F)F)C(F)(F)F)cc(C)c1-n1cc(-c2cnc(C3CC3)c(C(=O)NC3(C#N)CC3)c2)cn1 [I-T3-139] |  | 90% | 100% | 100% | 100% |  | 4.1 |  |
| COc1ncc(-c2cnn(-c3c(C)cc(C(F)(C(F)(F)F)C(F)(F)F)cc3C)c2)cc1C(=O)N(C)C1CC1 [I-T3-144] |  | 100% | 100% | 90% | 100% |  | 4.4 |  |
| CCNC(=O)c1cc(-c2cnn(-c3c(Cl)cc(C(F)(F)F)cc3Cl)c2)cnc1C [I-T3-147] |  |  |  |  |  | 100% | 4.0 |  |
| N#CC1(NC(=O)c2cc(-c3cnn(-c4ncc(C(F)(F)F)cc4C(F)(F)F)c3)ccc2Cl)CC1 [I-T3-149] |  | 100% | 100% | 100% | 100% |  | 3.5 |  |
| O=C(NC1CC1)c1cc(-c2cnn(-c3ncc(C(F)(F)F)cc3C(F)(F)F)c2)ccc1Cl [I-T3-150] |  | 100% | 100% | 100% | 100% |  | 3.6 |  |
| N#CC1(NC(=O)c2cc(-c3cnn(-c4ncc(C(F)(C(F)(F)F)C(F)(F)F)cc4Cl)c3)ccc2Cl)CC1 [I-T3-151] |  | 100% | 100% | 100% | 100% |  | 4.0 |  |
| N#CC1(CNC(=O)c2cc(-c3cnn(-c4c(Cl)cc(C(F)(C(F)(F)F)C(F)(F)F)cc4C(F)(F)F)c3)ccc2Cl)CC1 [I-T3-199] |  |  |  |  |  | 100% |  |  |
| Cc1cc(C(F)(C(F)(F)F)C(F)(F)F)cc(C)c1-n1ccc(-c2ccc(Cl)c(C(=O)NC3CC3)c2)c1 [I-T46-2] |  |  | 100% | 100% | 100% | 100% |  | 5.0 |
